# Source: US5206148A, “Method for assaying aliphatic alcohol, aliphatic aldehyde or ω-carboxylic acid derivatives thereof” (Asahi Kasei Kogyo Kabushiki Kaisha, priority 1991, dated 1993)
# Assays:
# Assay type in all cases: biochemical, Streptomyces sp. AC 8205
# ω-carboxyalcohol oxidase [1] = test: Substrate specificity of ω-carboxyalcohol oxidase (peroxidase/4-aminoantipyrine H2O2 assay); design: Relative Activity (%): concentration or dose not given beside the values; conditions: for Relative Activity (%): substrate in place of 12-hydroxydodecanoic acid, activity on 12-hydroxydodecanoic acid defined as 100, pH 7.5, 37° C., 10 mins.; for Substrate specificity: statement in words, from Table 2
# Protocol: (§1) An enzyme solution (25 μl) was added to the above mixture (0.5 ml), followed by incubation at 37° C. for exactly 10 mins., whereupon sodium dodecyl sulfate (SDS) (0.5 ml) was added thereto, then absorbance at 545 nm was measured. One unit of enzyme is defined by the activity which generates 1 μmole of hydrogen peroxide per minute.
# Assay method: In the assay method illustrated at item 1. hereinabove, 12-hydroxydodecanoic acid was replaced by the substrates indicated in Table 2, and the resulting relative activities were produced, defining the activity on 12-hydroxydodecanoic acid as 100.
# ω-carboxyalcohol oxidase [2] = test: Effects of reagents (detergents and metal ions) on enzyme activity; conditions: None = 100
# Protocol: as §1
# The effects of various detergent and metal ions are shown in Table 4, in which the listed reagents show no significant effect on the enzyme. Activities of the enzyme are measured by adding each listed detergent and metal ion to the assay method described above at item 1.
# ω-carboxyalcohol oxidase [3] = test: Utilization of coenzyme (absorbance at 340 nm); conditions: for A340nm: 37° C., one unit of enzyme, 12-hydroxydodecanoic acid; for Utilization of coenzyme: statement in words
# Protocol: One unit of enzyme is added to the reaction mixture (2.0 ml) hereinabove and the absorbance at 340 nm and 37° C. is continuously measured.
compound,measurement,setting,value
CCCO [H3 C--(CH2)2 --OH],Relative Activity (%),ω-carboxyalcohol oxidase [1],6.6%
"CCO [H3 C--CH2 --OH, ethanol]",Substrate specificity,ω-carboxyalcohol oxidase [1],no specificity
same,Relative Activity (%),ω-carboxyalcohol oxidase [1],0%
CCCCCCCCCCCCCCO [H3 C--(CH2)13 --OH],Relative Activity (%),ω-carboxyalcohol oxidase [1],76.1%
CCCCCCCCCCO [H3 C--(CH2)9 --OH],Substrate specificity,ω-carboxyalcohol oxidase [1],has substrate specificity
same,Relative Activity (%),ω-carboxyalcohol oxidase [1],87.6%
Triton X-100,Relative Activity (%),ω-carboxyalcohol oxidase [2]; reagent 1.0%,93.1%
[Cl-].[Na+] [NaCl],Relative Activity (%),ω-carboxyalcohol oxidase [2]; reagent 100 mM,95.1%
"O=C(O)CCCCCCCCCCCCCCCO [HO2 C--(CH2)15 --OH, 16-hydroxy hexadecanoic acid]",Relative Activity (%),ω-carboxyalcohol oxidase [1],65.5%
C[C@H](CCC(=O)O)[C@H]1CC[C@H]2[C@@H]3CC[C@@H]4C[C@H](O)CC[C@]4(C)[C@H]3C[C@H](O)[C@]12C [Deoxycholate],Relative Activity (%),ω-carboxyalcohol oxidase [2]; reagent 10 mM,94.9%
CCCCO [H3 C--(CH2)3 --OH],Relative Activity (%),ω-carboxyalcohol oxidase [1],76.1%
NC(=O)c1ccc[n+]([C@@H]2O[C@H](COP(=O)([O-])OP(=O)(O)OC[C@H]3O[C@@H](n4cnc5c(N)ncnc54)[C@H](O)[C@@H]3O)[C@@H](O)[C@H]2O)c1 [NAD],A340nm,ω-carboxyalcohol oxidase [3]; 0 min.,0.062
same,A340nm,ω-carboxyalcohol oxidase [3]; 2 mins.,0.061
same,A340nm,ω-carboxyalcohol oxidase [3]; 4 mins.,0.060
same,A340nm,ω-carboxyalcohol oxidase [3]; 6 mins.,0.062
same,A340nm,ω-carboxyalcohol oxidase [3]; 8 mins.,0.061
same,A340nm,ω-carboxyalcohol oxidase [3]; 10 mins.,0.061
same,Utilization of coenzyme,ω-carboxyalcohol oxidase [3],No utilization
[Cl-].[K+] [KCl],Relative Activity (%),ω-carboxyalcohol oxidase [2]; reagent 100 mM,97.6%
[Cl][Mn][Cl] [MnCl2],Relative Activity (%),ω-carboxyalcohol oxidase [2]; reagent 1 mM,102.4%
NC(=O)c1ccc[n+]([C@@H]2O[C@H](COP(=O)([O-])OP(=O)(O)OC[C@H]3O[C@@H](n4cnc5c(N)ncnc54)[C@H](OP(=O)(O)O)[C@@H]3O)[C@@H](O)[C@H]2O)c1 [NADP],A340nm,ω-carboxyalcohol oxidase [3]; 0 min.,0.046
same,A340nm,ω-carboxyalcohol oxidase [3]; 2 mins.,0.047
same,A340nm,ω-carboxyalcohol oxidase [3]; 4 mins.,0.045
same,A340nm,ω-carboxyalcohol oxidase [3]; 6 mins.,0.046
same,A340nm,ω-carboxyalcohol oxidase [3]; 8 mins.,0.046
same,A340nm,ω-carboxyalcohol oxidase [3]; 10 mins.,0.047
same,Utilization of coenzyme,ω-carboxyalcohol oxidase [3],No utilization
CCCCCCO [H3 C--(CH2)5 --OH],Substrate specificity,ω-carboxyalcohol oxidase [1],has substrate specificity
same,Relative Activity (%),ω-carboxyalcohol oxidase [1],88.5%
CCCCCCCCO [H3 C--(CH2)7 --OH],Substrate specificity,ω-carboxyalcohol oxidase [1],has substrate specificity
same,Relative Activity (%),ω-carboxyalcohol oxidase [1],88.5%
CCCCCCCCCCCCO [H3 C--(CH2)11 --OH],Substrate specificity,ω-carboxyalcohol oxidase [1],has substrate specificity
same,Relative Activity (%),ω-carboxyalcohol oxidase [1],86.1%
Cl.N [NH4 Cl],Relative Activity (%),ω-carboxyalcohol oxidase [2]; reagent 100 mM,89.0%
CCCCCCCCC=CCCCCCCCCO [H3 C--(CH2)7 --CH=CH--(CH2)8 --OH],Relative Activity (%),ω-carboxyalcohol oxidase [1],59.1%
"CO [H3 C--OH, methanol]",Substrate specificity,ω-carboxyalcohol oxidase [1],no specificity
same,Relative Activity (%),ω-carboxyalcohol oxidase [1],0%
CCCCCCCCCCCCCCCCO [H3 C--(CH2)15 --OH],Relative Activity (%),ω-carboxyalcohol oxidase [1],60.2%
OCC(O)CO [glycerol],Substrate specificity,ω-carboxyalcohol oxidase [1],no specificity
same,Relative Activity (%),ω-carboxyalcohol oxidase [1],0%
[Cl-].[Cl-].[Mg+2] [MgCl2],Relative Activity (%),ω-carboxyalcohol oxidase [2]; reagent 1 mM,98.2%
"O=C(O)CCCCCCCCCCCO [HO2 C--(CH2)11 --OH, 12-hydroxydodecanoic acid]",Substrate specificity,ω-carboxyalcohol oxidase [1],has substrate specificity
same,Relative Activity (%),ω-carboxyalcohol oxidase [1],100%
[Ca+2].[Cl-].[Cl-] [CaCl],Relative Activity (%),ω-carboxyalcohol oxidase [2]; reagent 1 mM,97.0%
C[C@H](CCC(=O)O)[C@H]1CC[C@H]2[C@@H]3[C@H](O)C[C@@H]4C[C@H](O)CC[C@]4(C)[C@H]3C[C@H](O)[C@]12C [Cholate],Relative Activity (%),ω-carboxyalcohol oxidase [2]; reagent 10 mM,94.9%
